# Test results reported in article PMC3849221 (NeuroImage, 2013).
# Read-outs that look alike come from different tables or passages of the source.
# Key:
# [1] = target: T1, CB1 receptor (Homo sapiens, UniProt P21554); type: binding
# [2] = target: T1, CB1 receptor; settings: cited from earlier work; for VT / Intersubject Variability of VT (SD/mean): human; for VT: mean±SD
# [3] = Lipophilicity LogD7.4; type: physicochemical; settings: n-octanol / 0.15 M sodium phosphate buffer pH 7.4, room temperature, 6 measurements
# [4] = test system: CB1 receptor; settings: ref Terry et al., 2010, cited from earlier work; for Specific binding (%) / VT (striatum) Baseline / VT (striatum) Preblocked: monkey striatum
# [5] = human parietal cortex, displacement of [3H]MePPEP, n=6
# [6] = Frontal, n=17, 150min, ref Terry et al, 2009
# [7] = Putamen, n=17, 150min, ref Terry et al, 2009
# [8] = Thalamus, n=17, 150min, ref Terry et al, 2009
# [9] = Cingulate, n=10, 90min, ref Wong et al, 2010
# [10] = Globus pallidus, n=10, 90min, ref Wong et al, 2010
# [11] = Putamen, n=10, 90min, ref Wong et al, 2010
# [12] = Frontal, n=9, 120min, ref Terry et al., 2010
# [13] = Putamen, n=9, 120min, ref Terry et al., 2010
# [14] = Thalamus, n=9, 120min, ref Terry et al., 2010
# T1 sequence (P21554 whole entry): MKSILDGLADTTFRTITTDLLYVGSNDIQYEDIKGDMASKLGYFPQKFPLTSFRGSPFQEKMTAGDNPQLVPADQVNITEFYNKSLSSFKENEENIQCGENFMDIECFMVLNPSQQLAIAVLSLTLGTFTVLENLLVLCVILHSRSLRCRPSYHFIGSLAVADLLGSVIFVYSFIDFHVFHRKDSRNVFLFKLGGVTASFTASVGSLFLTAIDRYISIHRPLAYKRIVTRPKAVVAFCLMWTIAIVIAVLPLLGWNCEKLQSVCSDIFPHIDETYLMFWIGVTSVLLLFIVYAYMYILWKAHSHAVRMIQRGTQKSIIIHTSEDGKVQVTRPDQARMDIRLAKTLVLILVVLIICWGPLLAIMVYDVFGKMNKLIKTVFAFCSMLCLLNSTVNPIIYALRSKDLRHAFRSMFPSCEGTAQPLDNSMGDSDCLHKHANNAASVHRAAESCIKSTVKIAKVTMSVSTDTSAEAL
structure (smiles),measurement,setting,value
COc1ccc(-c2c(C#N)c(C(=O)NN3CCCCC3)nn2-c2ccc(Cl)cc2Cl)cc1 [OMAR],Ki,[1]; [5],2.05 nM
C[C@@H](N[C@@H]1C[C@H](c2cccc(O[11CH3])c2)N(c2ccc(C(F)(F)F)cc2)C1=O)c1ccccc1 [^11C-MePPEP],VT,[2]; [6],22.4±12.8 mL · cm^−3
same,Intersubject Variability of VT (SD/mean),[2]; [6],57%
same,VT,[2]; [7],29.1±17.4 mL · cm^−3
same,Intersubject Variability of VT (SD/mean),[2]; [7],60%
same,VT,[2]; [8],11.2±5.0 mL · cm^−3
same,Intersubject Variability of VT (SD/mean),[2]; [8],44%
same,LogD7.4,[3],4.77±0.27
same,Specific binding (%),[4],88%
same,VT (striatum) Baseline,[4],24.3 mL·cm^−3
same,VT (striatum) Preblocked,[4],2.9 mL·cm^−3
COc1ccc(-c2c(C#N)c(C(=O)NN3CCCCC3)nn2-c2ccc(Cl)cc2Cl)cc1 [^11C-OMAR],VT,[2]; [9],1.23±0.16 mL · cm^−3
same,Intersubject Variability of VT (SD/mean),[2]; [9],13%
same,VT,[2]; [10],1.47±0.25 mL · cm^−3
same,Intersubject Variability of VT (SD/mean),[2]; [10],17%
same,VT,[2]; [11],1.32±0.20 mL · cm^−3
same,Intersubject Variability of VT (SD/mean),[2]; [11],15%
same,Ki,[1],2.05 nM
"N#Cc1ccc(S(=O)(=O)NC(=N)N2CC(c3ccccc3)C(c3ccc(Cl)cc3)=N2)cc1 (stereo not drawn) [^11C-SD5024, [cyano-^11C](−)-3-(4-chlorophenyl)-N-[(4-cyanophenyl)sulfonyl]-4-phenyl-4,5-dihydro-1H-pyrazole-1-carboxamidine]",Ki,[1]; [5],0.47 nM
[2H]C([18F])Oc1cccc([C@H]2C[C@@H](N[C@H](C)c3ccccc3)C(=O)N2c2ccc(C(F)(F)F)cc2)c1 (stereo partly shown) [^18F-FMPEP-d2],VT,[2]; [12],22.7±6.4 mL · cm^−3
same,Intersubject Variability of VT (SD/mean),[2]; [12],28%
same,VT,[2]; [13],24.3±7.2 mL · cm^−3
same,Intersubject Variability of VT (SD/mean),[2]; [13],29%
same,VT,[2]; [14],9.6±2.5 mL · cm^−3
same,Intersubject Variability of VT (SD/mean),[2]; [14],26%
same,peak brain uptake,"[2]; species not given, ref Terry et al., 2010",~ 6 SUV
same,LogD7.4,[3],4.24±0.08
same,percentage of specific binding in monkey brain,[4]; monkey brain,85%
same,Specific binding (%),[4],85%
same,VT (striatum) Baseline,[4],35.4 mL·cm^−3
same,VT (striatum) Preblocked,[4],5.4 mL·cm^−3
Cc1ccc(OC(C)(C)C(=O)N[C@@H](C)[C@@H](Cc2ccc(OCCF)cc2)c2cccc(C#N)c2)nc1 [^18F-MK-9470],Intersubject Variability of VT (SD/mean),"[2]; Frontal, n=12, 700, 360, 150min, ref Sanabria-Bohórquez et al., 2010",58%
same,Intersubject Variability of VT (SD/mean),"[2]; Putamen, n=12, 700, 360, 150min, ref Sanabria-Bohórquez et al., 2010",53%
same,Intersubject Variability of VT (SD/mean),"[2]; Thalamus, n=12, 700, 360, 150min, ref Sanabria-Bohórquez et al., 2010",60%
